These results are taken from paper PMC9000575, “Solution Equilibrium Studies on Salicylidene Aminoguanidine Schiff Base Metal Complexes: Impact of the Hybridization with L-Proline on Stability, Redox Activity and Cytotoxicity” (Molecules, 2022).

Molecules are shown by their SMILES. Like-named read-outs stand apart in the source and are kept apart here.

One may read the IC50 as the concentration that inhibits the measured activity by half.

In series [1] the test system is Colo-205 human colon adenocarcinoma cells. Nature of the series: MTT cytotoxicity test. The class given is cell-based. The conditions noted are these: Colo-205, 72 h. The procedure: (§1) All cell culture reagents were obtained from Sigma-Aldrich and plastic ware from Sarstedt (Nümbrecht, Germany). Human colon Colo-205 (chemo-sensitive) and Colo-320 (doxorubicin-resistant) adenocarcinoma and MRC-5 human embryonal lung fibroblast cell lines were purchased from LGC Promochem, Teddington, UK. The colon adenocarcinoma cells were cultured in Roswell Park Memorial Institute (RPMI) 1640 medium supplemented with 10% heat-inactivated fetal bovine serum, 2 mM L-glutamine, 1 mM sodium pyruvate and 100 mM HEPES. The MRC-5 cell line was cultured in Eagle’s Minimal Essential Medium (EMEM, Sigma-Aldrich, St. Louis, MO, USA) supplemented with a non-essential amino acid (NEAA) mixture (Sigma-Aldrich, St. Louis, MO, USA) a selection of vitamins, 10% heat-inactivated foetal bovine serum (FBS), 2 mM L-glutamine (Sigma-Aldrich, St. Louis, MO, USA), 1 mM Na-pyruvate (Sigma-Aldrich, St. Louis, MO, USA), nystatin (Sigma-Aldrich, St. Louis, MO, USA) and a penicillin-streptomycin mixture (Sigma-Aldrich, St. Louis, MO, USA) in concentrations of 100 U/L and 10 mg/L, respectively. The cells were incubated at 37 °C, in a 5% CO2, 95% air atmosphere. All cell lines were detached with Trypsin-Versene® (EDTA) solution for 5 min at 37 °C.
(§2) The tested compounds were dissolved in 90% (v/v) DMSO/H2O using 8 mM concentration, […] in the final samples the DMSO content was always lower than 1%. Then stock solutions were diluted in complete culture medium, and two-fold serial dilutions of compounds were prepared in 100 μL of the medium, horizontally. The semi-adherent colon adenocarcinoma cells were treated with Trypsin-Versene (EDTA) solution. They were adjusted to a density of 1 × 10^4 cells in 100 μL of RPMI 1640 or EMEM medium and were added to each well, with the exception of the medium control wells. The final volume of the wells containing compounds and cells was 200 μL. The plates containing Colo-205, Colo-320 or MRC-5 cells were incubated at 37 °C for 72 h; at the end of the incubation period, 20 μL of MTT solution (from a stock solution of 5 mg/mL) were added to each well. After incubation at 37 °C for 4 h, 100 μL of SDS solution (10% in 0.01 M HCI) were added to each well, and the plates were further incubated at 37 °C overnight. Cell growth was determined by measuring the optical density (OD) at 540/630 nm with a Multiskan EX plate reader (Thermo Labsystems, Cheshire, WA, USA). Inhibition of the cell growth (expressed as IC50: inhibitory concentration that reduces by 50% the growth of the cells exposed to the tested compounds) was determined from the sigmoid curve where 100 − ((ODsample − ODmedium control)/(ODcell control − ODmedium control)) × 100 values were plotted against the logarithm of compound concentrations. Curves were fitted by GraphPad Prism software (2021, Graphpad Software, San Diego, CA, USA) using the sigmoidal dose–response model (comparing variable and fixed slopes). The IC50 values were obtained from at least three independent experiments.

Series [2] has as its system Colo-320 (doxorubicin-resistant) human colon adenocarcinoma cells. Nature of the series: MTT cytotoxicity test. In kind it is cell-based. The conditions noted are these: Colo-320, 72 h. The procedure:
as §1, §2
A general note: Tetrazolium assays rely on reduction of a dye to a coloured formazan, in cell work by metabolically active cells.

The subject of series [3] is MRC-5 human embryonal lung fibroblast cells. The series can be described thus: MTT cytotoxicity test. The class given is cell-based. The conditions noted are these: MRC-5, 72 h. How it is done:
as §1, §2

The nature of series [4]: literature pKa values of analogous (thio)semicarbazones. In kind it is physicochemical. The conditions noted are these: from literature pKa values (refs 22, 23).
For series [5] the following is noted: pH 7.4; cited from earlier work.
The conditions of series [6]: 30% (v/v) DMSO/H2O; cited from earlier work.
The nature of series [7]: stability constants of Fe(II) complexes by pH-potentiometry. The class given is physicochemical. The conditions noted are these: calculated at pH 7.4, cFe = 1 μM, cligand = 10 μM, from overall stability constants reported in Refs. 22, 27, 34.
Series [8] is described as follows: stability constants of Fe(III) complexes by pH-potentiometry. In kind it is physicochemical. The conditions noted are these: calculated at pH 7.4, cFe = 1 μM, cligand = 10 μM, from overall stability constants reported in Refs. 22, 27, 34.
The conditions of series [9]: cited from earlier work.
In series [10] the test system is Colo-205 human colon adenocarcinoma cells. Set-up: method as in PMID 35287037. The conditions noted are these: Colo-205, 72 h; cited from earlier work.
Series [11] has as its system Colo-320 (doxorubicin-resistant) human colon adenocarcinoma cells. Set-up: method as in PMID 35287037. The conditions noted are these: Colo-320, 72 h; cited from earlier work.
Series [12] concerns MRC-5 human embryonal lung fibroblast cells. Set-up: method as in PMID 35287037. The conditions noted are these: MRC-5, 72 h; cited from earlier work.

For `[Cl][Cu][Cl]` [CuCl2, reference compound], the concentration for half-maximal inhibition (IC50) came to 44.1 ± 0.4 µM in [1], 48.7 ± 0.4 µM in [2] and 43.9 ± 0.3 µM in [3].

For the compound `NC(=O)N/N=C/c1ccccc1O` [SSC, salicylaldehyde semicarbazone], in [4], the “fraction present in neutral form at pH 7.4” value came out at 100%. Besides, the logD7.4 entry in series [5] is on record as “+0.94”. In [6], the pK1 is reported as 9.32 and the pK2 is listed as above 12.8.

In the case of `NC(=S)N/N=C/c1ccccc1O` [STSC, salicylaldehyde TSC], in series [4], the “fraction present in neutral form at pH 7.4” value was determined as 97%. Besides, the logD7.4 result in series [5] was “+1.59”. Also, in series [7], the “pFe(II) (−log[Fe(II)])” value is listed as 8.3. Also, the “pFe(III)* (−logΣ[Fe(III)i(OH)j])” value in series [8] is 8.4. For the same compound, in series [9] (STSC complexes, 'as it was found', no reference given), the “E1/2 of the Fe(III)/Fe(II) redox couple of the iron complexes” value is −0.14 V vs. NHE. Besides, the concentration for half-maximal inhibition (IC50) in series [10] is 69.7 ± 1.9 µM; in series [11], 52.2 ± 6.8 µM; in series [12] it was 88 ± 19 µM. Besides, the pK1 in [6] is on record as 8.89. Further, the pK2 in series [6] is listed as 12.59.

`NC(=S)NN=Cc1ncccc1N` [Triapine, 3-aminopyridine-2-carbaldehyde thiosemicarbazone]: the “pFe(II) (−log[Fe(II)])” value in series [7] is 11.6. Besides, the “pFe(III)* (−logΣ[Fe(III)i(OH)j])” value in series [8] is 7.3. Moreover, the “E1/2 of the Fe(III)/Fe(II) redox couple of the iron complexes” value in series [9] was “+0.08 V vs. NHE”. For the same compound, the results for the concentration for half-maximal inhibition (IC50) in series [10], in series [11] and in series [12] were 3.28 ± 0.63 µM, 2.17 ± 0.15 µM and 31.4 ± 9.2 µM, respectively.
